Assay results from ChEMBL document CHEMBL1649421, “New drug-like hydroxyphenylnaphthol steroidomimetics as potent and selective 17β-hydroxysteroid dehydrogenase type 1 inhibitors for the treatment of estrogen-dependent diseases” (J Med Chem, 2011).

How the values were obtained:
[1] = molecular target: T1, 17-beta-hydroxysteroid dehydrogenase type 2 (Homo sapiens) (UniProt P37059); experiment: Inhibition of [3H]E2 binding to human recombinant 17beta-HSD2 expressed in baculovirus-infected Sf9 cells at 100 nM after 10 mins by fluid scintillation counting
T1 sequence (whole entry): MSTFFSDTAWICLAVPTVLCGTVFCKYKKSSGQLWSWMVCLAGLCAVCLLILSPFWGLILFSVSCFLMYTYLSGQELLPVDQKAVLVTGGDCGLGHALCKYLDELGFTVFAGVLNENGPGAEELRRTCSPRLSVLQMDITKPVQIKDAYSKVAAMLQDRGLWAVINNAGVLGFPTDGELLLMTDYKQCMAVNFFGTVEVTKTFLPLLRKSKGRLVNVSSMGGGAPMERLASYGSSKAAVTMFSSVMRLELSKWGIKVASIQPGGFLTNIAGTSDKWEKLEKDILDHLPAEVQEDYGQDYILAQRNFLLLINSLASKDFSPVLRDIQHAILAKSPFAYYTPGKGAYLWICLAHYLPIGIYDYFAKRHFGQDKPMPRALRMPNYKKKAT

[2] = molecular target: T1, 17-beta-hydroxysteroid dehydrogenase type 2 (Homo sapiens); experiment: Inhibition of [3H]E2 binding to human recombinant 17beta-HSD2 expressed in baculovirus-infected Sf9 cells at 1 uM after 10 mins by fluid scintillation counting
Homo sapiens = organism: Homo sapiens; experiment: Selectivity ratio of IC50 for human placental 17beta-HSD2 to IC50 for human placental 17beta-HSD1
[3] = molecular target: T2, 17-beta-hydroxysteroid dehydrogenase type 1 (Homo sapiens, UniProt P14061); experiment: Displacement of [3H]E1 from 17beta-HSD1 in human T47D cells after 10 mins by fluid scintillation counting; assay type: cell-based
T2 sequence (P14061 whole entry): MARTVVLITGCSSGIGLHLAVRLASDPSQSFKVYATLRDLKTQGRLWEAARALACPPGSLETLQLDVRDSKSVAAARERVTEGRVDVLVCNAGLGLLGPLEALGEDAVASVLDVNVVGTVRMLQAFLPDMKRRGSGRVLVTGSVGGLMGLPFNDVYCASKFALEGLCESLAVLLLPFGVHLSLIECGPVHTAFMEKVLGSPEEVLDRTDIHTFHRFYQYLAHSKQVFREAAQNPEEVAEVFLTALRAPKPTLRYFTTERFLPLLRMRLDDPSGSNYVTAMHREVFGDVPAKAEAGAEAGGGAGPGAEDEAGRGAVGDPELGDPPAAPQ

[4] = molecular target: T3, Estrogen receptor (Homo sapiens) (UniProt P03372); experiment: Displacement of [3H]E2 from human recombinant ERalpha by liquid scintillation counting relative to estradiol
T3 sequence (whole entry): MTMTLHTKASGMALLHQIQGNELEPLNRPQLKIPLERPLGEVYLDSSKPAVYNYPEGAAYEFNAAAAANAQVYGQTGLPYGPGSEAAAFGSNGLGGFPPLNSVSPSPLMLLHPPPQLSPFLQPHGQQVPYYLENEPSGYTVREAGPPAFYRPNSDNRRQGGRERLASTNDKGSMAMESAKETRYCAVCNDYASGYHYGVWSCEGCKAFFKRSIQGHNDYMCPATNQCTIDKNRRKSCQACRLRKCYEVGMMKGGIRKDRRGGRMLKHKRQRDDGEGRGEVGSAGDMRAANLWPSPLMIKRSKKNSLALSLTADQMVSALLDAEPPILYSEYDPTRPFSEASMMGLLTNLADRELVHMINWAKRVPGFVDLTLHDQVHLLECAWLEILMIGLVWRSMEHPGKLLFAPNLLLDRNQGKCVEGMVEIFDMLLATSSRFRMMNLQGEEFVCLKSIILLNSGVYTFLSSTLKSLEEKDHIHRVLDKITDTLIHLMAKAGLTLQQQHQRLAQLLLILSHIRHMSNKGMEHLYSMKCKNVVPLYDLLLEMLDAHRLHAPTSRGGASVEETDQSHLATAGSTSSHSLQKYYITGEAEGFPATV

[5] = molecular target: Estrogen receptor beta (Homo sapiens) (UniProt Q92731); experiment: Displacement of [3H]E2 from human recombinant ERbeta by liquid scintillation counting relative to estradiol
Sequence of Estrogen receptor beta (Homo sapiens) (Q92731 whole entry): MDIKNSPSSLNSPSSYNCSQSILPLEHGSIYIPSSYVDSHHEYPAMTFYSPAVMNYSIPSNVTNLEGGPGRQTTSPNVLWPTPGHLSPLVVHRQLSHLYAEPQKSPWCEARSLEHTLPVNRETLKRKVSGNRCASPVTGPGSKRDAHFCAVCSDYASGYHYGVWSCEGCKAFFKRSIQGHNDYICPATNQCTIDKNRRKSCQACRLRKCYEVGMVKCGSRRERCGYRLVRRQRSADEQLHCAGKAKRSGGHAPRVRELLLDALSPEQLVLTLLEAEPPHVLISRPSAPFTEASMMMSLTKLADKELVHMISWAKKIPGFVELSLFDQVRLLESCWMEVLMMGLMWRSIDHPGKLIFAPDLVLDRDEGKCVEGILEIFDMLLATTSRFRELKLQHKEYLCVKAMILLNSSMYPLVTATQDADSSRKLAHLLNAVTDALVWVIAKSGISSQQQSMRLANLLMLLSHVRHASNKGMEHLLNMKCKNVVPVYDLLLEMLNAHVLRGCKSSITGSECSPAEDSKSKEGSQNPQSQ

[6] = Apparent permeability across human Caco2 cells after 180 mins by LC-MS/MS analysis; assay type: ADME, cell-based; conditions: Caco-2
Cytochrome P450 1A2 = molecular target: T4, Cytochrome P450 1A2 (Homo sapiens, UniProt P05177); experiment: Inhibition of human CYP1A2; assay type: ADME
T4 sequence (P05177 whole entry): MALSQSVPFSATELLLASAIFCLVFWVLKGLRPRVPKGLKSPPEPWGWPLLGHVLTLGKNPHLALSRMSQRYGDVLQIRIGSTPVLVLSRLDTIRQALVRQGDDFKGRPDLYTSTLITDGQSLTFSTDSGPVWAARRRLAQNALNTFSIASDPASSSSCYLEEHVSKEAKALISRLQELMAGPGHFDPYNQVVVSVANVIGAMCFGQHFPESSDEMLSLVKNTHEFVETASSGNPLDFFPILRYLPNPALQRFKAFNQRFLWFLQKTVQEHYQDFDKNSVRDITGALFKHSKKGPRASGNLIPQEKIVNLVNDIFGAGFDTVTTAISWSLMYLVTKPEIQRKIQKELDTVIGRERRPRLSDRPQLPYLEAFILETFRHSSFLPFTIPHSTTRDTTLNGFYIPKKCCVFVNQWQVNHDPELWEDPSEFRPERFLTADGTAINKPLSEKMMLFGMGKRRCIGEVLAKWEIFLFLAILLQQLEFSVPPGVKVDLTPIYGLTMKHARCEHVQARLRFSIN

Cytochrome P450 2B6 = molecular target: T5, Cytochrome P450 2B6 (Homo sapiens, UniProt P20813); experiment: Inhibition of human CYP2B6; assay type: ADME
T5 sequence (P20813 whole entry): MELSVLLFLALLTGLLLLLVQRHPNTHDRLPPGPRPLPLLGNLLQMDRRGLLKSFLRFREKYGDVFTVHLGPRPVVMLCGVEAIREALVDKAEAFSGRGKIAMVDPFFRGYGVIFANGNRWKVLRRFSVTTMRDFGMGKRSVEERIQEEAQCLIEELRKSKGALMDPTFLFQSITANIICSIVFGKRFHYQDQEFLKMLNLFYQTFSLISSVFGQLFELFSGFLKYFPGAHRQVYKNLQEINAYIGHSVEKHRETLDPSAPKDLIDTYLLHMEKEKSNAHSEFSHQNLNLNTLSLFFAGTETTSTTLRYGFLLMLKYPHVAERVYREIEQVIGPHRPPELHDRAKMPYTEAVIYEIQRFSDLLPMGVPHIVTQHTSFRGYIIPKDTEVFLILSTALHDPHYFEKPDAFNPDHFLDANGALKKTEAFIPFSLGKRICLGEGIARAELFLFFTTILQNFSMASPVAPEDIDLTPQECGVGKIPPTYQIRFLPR

Cytochrome P450 2C9 = Cytochrome P450 2C9 (Homo sapiens, UniProt P11712); experiment: Inhibition of human CYP2C9; assay type: ADME
Sequence of Cytochrome P450 2C9 (P11712 whole entry): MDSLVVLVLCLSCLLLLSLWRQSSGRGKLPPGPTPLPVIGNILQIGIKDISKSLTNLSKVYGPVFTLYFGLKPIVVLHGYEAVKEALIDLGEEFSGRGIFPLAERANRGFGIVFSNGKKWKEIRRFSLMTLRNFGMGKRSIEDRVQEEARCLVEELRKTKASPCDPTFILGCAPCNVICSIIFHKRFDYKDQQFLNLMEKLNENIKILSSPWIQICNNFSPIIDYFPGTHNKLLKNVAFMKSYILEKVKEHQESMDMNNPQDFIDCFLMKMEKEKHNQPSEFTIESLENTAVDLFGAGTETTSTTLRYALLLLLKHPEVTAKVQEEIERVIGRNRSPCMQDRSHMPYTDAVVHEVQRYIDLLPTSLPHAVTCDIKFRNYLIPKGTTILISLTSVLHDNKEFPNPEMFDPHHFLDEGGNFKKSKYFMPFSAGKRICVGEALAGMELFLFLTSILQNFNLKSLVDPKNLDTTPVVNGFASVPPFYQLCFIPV

Cytochrome P450 2C19 = Cytochrome P450 2C19 (Homo sapiens, UniProt P33261); experiment: Inhibition of human CYP2C19; assay type: ADME
Sequence of Cytochrome P450 2C19 (P33261 whole entry): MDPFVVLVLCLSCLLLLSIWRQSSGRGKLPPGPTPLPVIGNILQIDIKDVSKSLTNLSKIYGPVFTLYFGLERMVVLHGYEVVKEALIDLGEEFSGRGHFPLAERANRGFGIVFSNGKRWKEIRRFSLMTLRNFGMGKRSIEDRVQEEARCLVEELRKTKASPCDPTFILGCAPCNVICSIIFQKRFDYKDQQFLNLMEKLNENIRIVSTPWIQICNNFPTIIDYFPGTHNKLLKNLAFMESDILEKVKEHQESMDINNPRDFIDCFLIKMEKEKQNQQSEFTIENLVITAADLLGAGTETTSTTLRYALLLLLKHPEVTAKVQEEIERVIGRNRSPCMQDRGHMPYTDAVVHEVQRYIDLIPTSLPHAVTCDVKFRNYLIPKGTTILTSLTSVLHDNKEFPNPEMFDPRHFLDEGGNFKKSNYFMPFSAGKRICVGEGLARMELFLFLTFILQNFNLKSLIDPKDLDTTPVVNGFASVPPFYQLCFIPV

Cytochrome P450 2D6 = Cytochrome P450 2D6 (Homo sapiens, UniProt P10635); experiment: Inhibition of human CYP2D6; assay type: ADME
Sequence of Cytochrome P450 2D6 (P10635 whole entry): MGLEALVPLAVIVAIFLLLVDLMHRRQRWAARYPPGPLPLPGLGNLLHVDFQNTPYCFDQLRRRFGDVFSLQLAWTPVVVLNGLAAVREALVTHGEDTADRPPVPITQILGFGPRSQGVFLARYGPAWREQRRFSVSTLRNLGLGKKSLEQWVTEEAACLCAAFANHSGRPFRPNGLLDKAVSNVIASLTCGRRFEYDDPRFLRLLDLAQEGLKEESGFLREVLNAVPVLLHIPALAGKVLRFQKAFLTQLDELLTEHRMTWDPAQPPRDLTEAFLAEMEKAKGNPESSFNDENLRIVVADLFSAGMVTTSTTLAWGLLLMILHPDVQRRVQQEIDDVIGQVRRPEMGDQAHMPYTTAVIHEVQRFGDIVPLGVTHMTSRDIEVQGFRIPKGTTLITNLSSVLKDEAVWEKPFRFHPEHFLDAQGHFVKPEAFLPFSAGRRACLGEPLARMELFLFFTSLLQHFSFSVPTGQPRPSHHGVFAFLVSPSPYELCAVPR

Cytochrome P450 3A4 = Cytochrome P450 3A4 (Homo sapiens, UniProt P08684); experiment: Inhibition of human CYP3A4; assay type: ADME
Sequence of Cytochrome P450 3A4 (P08684 whole entry): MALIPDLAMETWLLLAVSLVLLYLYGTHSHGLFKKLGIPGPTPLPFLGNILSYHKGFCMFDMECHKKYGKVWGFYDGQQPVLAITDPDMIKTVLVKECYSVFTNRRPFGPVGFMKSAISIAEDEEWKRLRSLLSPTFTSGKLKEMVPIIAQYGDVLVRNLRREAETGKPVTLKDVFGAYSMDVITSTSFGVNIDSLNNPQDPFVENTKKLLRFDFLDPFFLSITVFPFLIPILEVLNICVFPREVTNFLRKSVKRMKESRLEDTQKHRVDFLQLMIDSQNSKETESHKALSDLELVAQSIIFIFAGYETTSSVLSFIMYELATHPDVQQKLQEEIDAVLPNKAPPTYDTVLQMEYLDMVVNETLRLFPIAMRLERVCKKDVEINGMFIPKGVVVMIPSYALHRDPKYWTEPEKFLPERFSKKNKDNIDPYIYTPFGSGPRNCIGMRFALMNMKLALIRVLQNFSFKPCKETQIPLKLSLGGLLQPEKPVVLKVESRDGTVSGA

[7] = molecular target: T6, 17-beta-hydroxysteroid dehydrogenase type 1 (Homo sapiens) (UniProt P14061); experiment: Inhibition of [3H]E1 binding to human recombinant 17beta-HSD1 expressed in baculovirus-infected Sf9 cells at 100 nM after 10 mins by fluid scintillation counting
T6 sequence (whole entry): T2 sequence (P14061 whole entry)

[8] = molecular target: T6, 17-beta-hydroxysteroid dehydrogenase type 1 (Homo sapiens); experiment: Inhibition of [3H]E1 binding to human recombinant 17beta-HSD1 expressed in baculovirus-infected Sf9 cells at 1 uM after 10 mins by fluid scintillation counting
[9] = molecular target: T2, 17-beta-hydroxysteroid dehydrogenase type 1; experiment: Displacement of [3H]E1 from human placental 17beta-HSD1 after 10 mins by fluid scintillation counting
[10] = molecular target: T6, 17-beta-hydroxysteroid dehydrogenase type 1 (Homo sapiens); experiment: Inhibition of [3H]E1 binding to human placental 17beta-HSD1 at 100 nM after 10 mins by fluid scintillation counting
[11] = molecular target: T6, 17-beta-hydroxysteroid dehydrogenase type 1 (Homo sapiens); experiment: Inhibition of [3H]E1 binding to human placental 17beta-HSD1 at 1 uM after 10 mins by fluid scintillation counting
[12] = molecular target: T1, 17-beta-hydroxysteroid dehydrogenase type 2 (Homo sapiens); experiment: Inhibition of [3H]E2 binding to human placental 17beta-HSD2 at 1 uM after 10 mins by fluid scintillation counting

Compound	inhibition [1] [%]	inhibition [2] [%]	Ratio IC50 (Homo sapiens)	IC50 [3] [nM]	RBA [4] [%]	RBA [5] [%]	inhibition [7] [%]	inhibition [8] [%]	inhibition [11] [%]	inhibition [12] [%]	other results
Oc1ccccc1-c1ccc2c(-c3cncnc3)cccc2c1	–	–	–	–	–	–	–	–	< 10	< 10	–
Oc1cccc(-c2ccc3c(-c4cncnc4)cccc3c2)c1	–	–	–	–	–	–	–	–	< 10	< 10	–
Oc1cccc(-c2ccc3cc(O)ccc3c2)c1	–	–	49	229	0.1	0.1	–	–	–	–	–
Oc1ccccc1-c1ccc2c(-c3cncnc3)c(O)ccc2c1	–	–	–	–	–	–	–	–	< 10	< 10	–

More lines, main results first:

inhibition [1] [%]	inhibition [2] [%]	Ratio IC50 (Homo sapiens)	IC50 [3] [nM]	RBA [4] [%]	RBA [5] [%]	inhibition [7] [%]	inhibition [8] [%]	inhibition [11] [%]	inhibition [12] [%]	Compound	other results
22	77	27	281	0.01	0.01	–	–	–	–	Oc1cccc(-c2ccc3c(-c4ccccc4)c(O)ccc3c2)c1	Papp at 3 h [6]: 9.3 ×10⁻⁶ cm/s; IC50 (Cytochrome P450 1A2): 7160 nM; IC50 (Cytochrome P450 2B6): 7960 nM; IC50 (Cytochrome P450 2C9): 1640 nM; IC50 (Cytochrome P450 2C19): 1410 nM; IC50 (Cytochrome P450 2D6): 15500 nM; IC50 (Cytochrome P450 3A4): 2770 nM
< 10	40	27	115	0.01	0.01	83	93	–	–	Oc1cccc(-c2ccc3c(-c4cccc(O)c4)c(O)ccc3c2)c1	IC50 [9]: 36 nM; IC50 (Cytochrome P450 1A2): 19000 nM; IC50 (Cytochrome P450 2B6): 11800 nM; IC50 (Cytochrome P450 2C9): 270 nM; IC50 (Cytochrome P450 2C19): 6030 nM; IC50 (Cytochrome P450 2D6): 24800 nM; IC50 (Cytochrome P450 3A4): 40 nM
24	68	–	–	–	–	< 10	62	–	–	O=C(O)CCC(=O)Nc1cccc(-c2c(O)ccc3cc(-c4cccc(O)c4)ccc23)c1	–
–	–	–	–	–	–	–	–	79	9	COc1ncc(-c2c(O)ccc3cc(-c4cccc(O)c4)ccc23)c(OC)n1	inhibition [10]: 31%
12	32	–	–	–	–	32	65	–	–	Oc1cccc(-c2ccc3c(-c4ccc(N5CCOCC5)cc4)c(O)ccc3c2)c1	–
–	–	–	–	–	–	–	–	71	24	Cn1cc(-c2c(O)ccc3cc(-c4cccc(O)c4)ccc23)cn1	inhibition [10]: 28%
